From the CheMixHub ionic liquid set

Test: xn = mol fraction of the nth substance listed
Details: 101 kPa

CCCCCCCCCCCCCC[n+]1ccccc1.O=C([O-])C(O)c1ccccc1 + CC(C)C[C@H](N)C(=O)O + O
electrical conductivity [S/m]
Details | 293.15 K | 298.15 K | 303.15 K
x1 = 4.89e-06, x2 = 0.0009002 | 0.00294 | 0.00331 | 0.00369
x1 = 5.65e-06, x2 = 0.001799 | 0.00333 | 0.00365 | 0.004
x1 = 6.85e-06, x2 = 0 | 0.00248 | 0.00278 | 0.00309
x1 = 1.069e-05, x2 = 0.0009002 | 0.00459 | 0.0052 | 0.00582
x1 = 1.13e-05, x2 = 0.001799 | 0.00474 | 0.00522 | 0.00572
x1 = 1.424e-05, x2 = 0 | 0.00472 | 0.00529 | 0.00587
x1 = 1.54e-05, x2 = 0.0009002 | 0.0059 | 0.00666 | 0.0074
x1 = 1.695e-05, x2 = 0.001799 | 0.00622 | 0.00689 | 0.0075
x1 = 2.084e-05, x2 = 0.0009002 | 0.00743 | 0.0084 | 0.0093
x1 = 2.126e-05, x2 = 0 | 0.00671 | 0.0076 | 0.0084
x1 = 2.205e-05, x2 = 0.001799 | 0.0077 | 0.0086 | 0.0094
x1 = 2.519e-05, x2 = 0.0009002 | 0.0086 | 0.0097 | 0.0107
x1 = 2.733e-05, x2 = 0.001799 | 0.0091 | 0.0102 | 0.0111
x1 = 2.811e-05, x2 = 0 | 0.0086 | 0.0097 | 0.0108
x1 = 2.972e-05, x2 = 0.0009002 | 0.0098 | 0.0111 | 0.0124
x1 = 3.28e-05, x2 = 0.001799 | 0.0103 | 0.0116 | 0.0129
x1 = 3.46e-05, x2 = 0 | 0.0103 | 0.0116 | 0.0129
x1 = 3.552e-05, x2 = 0.0009002 | 0.0112 | 0.0126 | 0.0141
x1 = 3.863e-05, x2 = 0.001799 | 0.0115 | 0.0129 | 0.0144
x1 = 4.108e-05, x2 = 0 | 0.0117 | 0.0131 | –
x1 = 4.186e-05, x2 = 0.0009001 | 0.0124 | 0.014 | –
x1 = 4.41e-05, x2 = 0.001799 | 0.0124 | 0.0138 | –
x1 = 4.811e-05, x2 = 0 | 0.0129 | 0.0144 | –
x1 = 4.838e-05, x2 = 0.0009001 | 0.0134 | 0.0151 | –
x1 = 5.139e-05, x2 = 0.001799 | 0.0135 | 0.0152 | –
x1 = 5.388e-05, x2 = 0 | 0.0137 | 0.0154 | –
x1 = 5.509e-05, x2 = 0.0009001 | 0.0144 | 0.0162 | –
x1 = 5.868e-05, x2 = 0.001799 | 0.0146 | 0.0162 | –
x1 = 5.982e-05, x2 = 0 | 0.0145 | 0.0163 | –
x1 = 6.179e-05, x2 = 0.0009001 | 0.0152 | 0.0172 | –
x1 = 6.559e-05, x2 = 0 | 0.0153 | 0.0172 | –
x1 = 6.56e-05, x2 = 0.001799 | 0.0153 | 0.0171 | –
x1 = 6.813e-05, x2 = 0.0009001 | 0.0161 | 0.0181 | –
x1 = 7.081e-05, x2 = 0 | 0.016 | 0.018 | –
x1 = 7.216e-05, x2 = 0.001799 | 0.0161 | 0.0181 | –
x1 = 7.484e-05, x2 = 0.0009001 | 0.0169 | 0.0191 | –
x1 = 7.604e-05, x2 = 0 | 0.0167 | 0.0187 | –
x1 = 7.908e-05, x2 = 0.001799 | 0.0169 | 0.019 | –
x1 = 8.072e-05, x2 = 0 | 0.0173 | 0.0194 | –
